These are literature values, as cited in patent publication US20250295592A1, “Method for Controlled Release Oral Drug Delivery” (priority 2024, published 2025).

Each structure is given as a SMILES string. Like-named read-outs stand apart in the source and are kept apart here.

Where [1] appears, read: human stomach, acidic gastric contents.

As to `CCCC(C)C1(CC)C(=O)NC(=S)NC1=O` (stereo not shown) [thiopental], the “absorption from the stomach” value under setting [1] is listed as “readily absorbed”.

For the molecule `C=CCC1(C(C)CCC)C(=O)NC(=O)NC1=O` (stereo not shown) [secobarbital], the “absorption from the stomach” value under setting [1] is “readily absorbed”.

On to `Cc1cc(=O)n(-c2ccccc2)n1C` [antipyrine], for which, under “in vivo”, the “absorption from the stomach” value is recorded as “readily absorbed”.

`CC(=O)Oc1ccccc1C(=O)O` [aspirin]: the “absorption from the stomach” value under setting [1] is listed as “readily absorbed”.
